Measured values reported in ChEMBL document CHEMBL1201862, “PubChem BioAssay data set” (2004).
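A five-concentration, 48-hour dose response in 96-well plates underlies each endpoint, interpolated linearly between surrounding concentrations. GI50 marks 50% less growth.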 Calls of active or inactive are those of the source. Cut-off read from the data, not from the text of the source: active = GI50 up to about 1.1 µM and inactive = higher.

Columns and labels:
Assay in all cases: NCI tumour cell line growth inhibition, 48 h
786-0 = tested on: 786-0
A498 = tested on: A498
A549 = tested on: A549
ACHN = tested on: ACHN
BT-549 = tested on: BT-549
CAKI-1 = tested on: CAKI-1
CCRF-CEM = tested on: CCRF-CEM
COLO 205 = tested on: COLO 205
DU-145 = tested on: DU-145
HCC 2998 = tested on: HCC 2998
HCT-116 = tested on: HCT-116
HCT-15 = tested on: HCT-15
HL-60 = tested on: HL-60
HOP-92 = tested on: HOP-92
HT-29 = tested on: HT-29
K562 = tested on: K562
KM12 = tested on: KM12
M14 = tested on: M14
MCF7 = tested on: MCF7
MDA-MB-231 = tested on: MDA-MB-231
MDA-MB-435 = tested on: MDA-MB-435
MOLT-4 = tested on: MOLT-4
Malme-3M = tested on: Malme-3M
NCI-H226 = tested on: NCI-H226
NCI-H23 = tested on: NCI-H23
NCI-H460 = tested on: NCI-H460
NCI-H522 = tested on: NCI-H522
NCI/ADR-RES = tested on: NCI/ADR-RES
OVCAR-3 = tested on: OVCAR-3
OVCAR-4 = tested on: OVCAR-4
OVCAR-5 = tested on: OVCAR-5
OVCAR-8 = tested on: OVCAR-8
PC-3 = tested on: PC-3
RPMI-8226 = tested on: RPMI-8226
RXF 393 = tested on: RXF 393
SF-268 = tested on: SF-268
SF-539 = tested on: SF-539
SK-MEL-28 = tested on: SK-MEL-28
SK-MEL-2 = tested on: SK-MEL-2
SK-MEL-5 = tested on: SK-MEL-5
SN12C = tested on: SN12C
SNB-19 = tested on: SNB-19
SNB-75 = tested on: SNB-75
SR = tested on: SR
SW-620 = tested on: SW-620
TK-10 = tested on: TK-10
U-251 = tested on: U-251
UACC-257 = tested on: UACC-257
UO-31 = tested on: UO-31
EKVX = tested on: EKVX
HOP-62 = tested on: HOP-62
IGROV-1 = tested on: IGROV-1
LOX IMVI = tested on: LOX IMVI
SF-295 = tested on: SF-295

CC(=O)OC(COc1ccc2c(c1)[n+]([O-])nc(N)[n+]2[O-])CN1CCCCC1 (configuration not stated)
GI50 (786-0): 9.98 µM (inactive) | GI50 (A498): 4.36 µM (inactive) | GI50 (A549): 15.3 µM (inactive) | GI50 (ACHN): 6.79 µM (inactive) | GI50 (BT-549): 24.5 µM (inactive) | GI50 (CAKI-1): 17.4 µM (inactive) | GI50 (CCRF-CEM): 6.1 µM (inactive) | GI50 (COLO 205): 4.85 µM (inactive) | GI50 (DU-145): 18.3 µM (inactive) | GI50 (HCC 2998): 8.71 µM (inactive) | GI50 (HCT-116): 10.3 µM (inactive) | GI50 (HCT-15): 7.89 µM | GI50 (HL-60): 5.12 µM (inactive) | GI50 (HOP-92): 17.4 µM (inactive) | GI50 (HT-29): 11.1 µM (inactive) | GI50 (K562): 7.69 µM (inactive) | GI50 (KM12): 13.1 µM (inactive) | GI50 (M14): 16.2 µM (inactive) | GI50 (MCF7): 4.71 µM (inactive) | GI50 (MDA-MB-231): 5.61 µM (inactive) | GI50 (MDA-MB-435): 36 µM (inactive) | GI50 (MOLT-4): 2.49 µM (inactive) | GI50 (Malme-3M): 9.79 µM (inactive) | GI50 (NCI-H226): 15.3 µM (inactive) | GI50 (NCI-H23): 12.4 µM (inactive) | GI50 (NCI-H460): 3.97 µM (inactive) | GI50 (NCI-H522): 11.1 µM (inactive) | GI50 (NCI/ADR-RES): 68.5 µM (inactive) | GI50 (OVCAR-3): 13.6 µM (inactive) | GI50 (OVCAR-4): 30.7 µM (inactive) | GI50 (OVCAR-5): 20.8 µM (inactive) | GI50 (OVCAR-8): 13.8 µM (inactive) | GI50 (PC-3): 1.52 µM (inactive) | GI50 (RPMI-8226): 5.58 µM (inactive) | GI50 (RXF 393): 16.5 µM (inactive) | GI50 (SF-268): > 10 µM (inactive) | GI50 (SF-539): 15.2 µM (inactive) | GI50 (SK-MEL-28): 24.5 µM (inactive) | GI50 (SK-MEL-2): 10.2 µM (inactive) | GI50 (SK-MEL-5): 3.78 µM (inactive) | GI50 (SN12C): 7.62 µM (inactive) | GI50 (SNB-19): 22.3 µM (inactive) | GI50 (SNB-75): 18.2 µM (inactive) | GI50 (SR): 12.2 µM (inactive) | GI50 (SW-620): 17.1 µM (inactive) | GI50 (TK-10): 23.5 µM (inactive) | GI50 (U-251): 13.5 µM (inactive) | GI50 (UACC-257): 12.5 µM (inactive) | GI50 (UO-31): 25.3 µM (inactive)

Nc1cc(N2CCCC2)nc(=O)n1Cc1ccccc1
GI50 (786-0): > 100 µM (inactive) | GI50 (A549): > 100 µM (inactive) | GI50 (ACHN): > 100 µM (inactive) | GI50 (BT-549): > 100 µM (inactive) | GI50 (CAKI-1): > 100 µM (inactive) | GI50 (CCRF-CEM): > 100 µM (inactive) | GI50 (COLO 205): > 100 µM (inactive) | GI50 (DU-145): > 100 µM (inactive) | GI50 (EKVX): > 100 µM (inactive) | GI50 (HCT-116): > 100 µM (inactive) | GI50 (HCT-15): > 100 µM | GI50 (HL-60): > 100 µM (inactive) | GI50 (HOP-62): > 100 µM (inactive) | GI50 (HOP-92): > 100 µM (inactive) | GI50 (HT-29): > 100 µM (inactive) | GI50 (IGROV-1): > 100 µM (inactive) | GI50 (K562): > 100 µM (inactive) | GI50 (KM12): > 100 µM (inactive) | GI50 (LOX IMVI): > 100 µM (inactive) | GI50 (M14): > 100 µM (inactive) | GI50 (MCF7): > 100 µM (inactive) | GI50 (MDA-MB-231): > 100 µM (inactive) | GI50 (MDA-MB-435): > 100 µM (inactive) | GI50 (MOLT-4): > 100 µM (inactive) | GI50 (Malme-3M): > 100 µM (inactive) | GI50 (NCI-H226): > 100 µM (inactive) | GI50 (NCI-H23): > 100 µM (inactive) | GI50 (NCI-H460): > 100 µM (inactive) | GI50 (NCI-H522): > 100 µM (inactive) | GI50 (NCI/ADR-RES): > 100 µM (inactive) | GI50 (OVCAR-4): > 100 µM (inactive) | GI50 (OVCAR-5): > 100 µM (inactive) | GI50 (OVCAR-8): > 100 µM (inactive) | GI50 (PC-3): > 100 µM (inactive) | GI50 (RPMI-8226): > 100 µM (inactive) | GI50 (SF-268): 39.5 µM (inactive) | GI50 (SF-295): > 100 µM (inactive) | GI50 (SF-539): > 100 µM (inactive) | GI50 (SK-MEL-2): > 100 µM (inactive) | GI50 (SK-MEL-5): > 100 µM (inactive) | GI50 (SN12C): > 100 µM (inactive) | GI50 (SNB-19): > 100 µM (inactive) | GI50 (SNB-75): > 100 µM (inactive) | GI50 (SR): > 100 µM (inactive) | GI50 (SW-620): > 100 µM (inactive) | GI50 (TK-10): > 100 µM (inactive) | GI50 (U-251): > 100 µM (inactive) | GI50 (UACC-257): > 100 µM (inactive)
